Consider one compound from US10888520B2, “Coated particle and method for producing coated particle” (KOBE GAKUIN EDUCATIONAL FOUNDATION, priority 2010, dated 2021).

The series can be described thus: Elution test, JP XV paddle method. The series is classed as physicochemical. The following applies: paddle 100 rpm, 900 ml pure water, 37° C. How it is done:
The coating particles obtained in Examples 1 to 3 and the acetaminophen bulk powder were subjected to an elution test.
The elution test was carried out under the conditions of the number of revolutions of paddle: 100 rpm, 900 ml pure water and 37° C., in accordance with JP XV paddle method. Elution concentration of acetaminophen was obtained from an absorbance (285 nm).

SMILES strings stand for the structures.

In the case of `CC(=O)Nc1ccc(O)cc1` [acetaminophen bulk powder, acetaminophen], the “elution concentration of acetaminophen” value is on record as 90% (after 0.5 minute) and 100% (after (about) 1 minute).
